The OligoGym collection
Strand notation (5' to 3'): a small letter for the sugar, then the base; units joined by * are phosphorothioate-linked, units joined directly phosphodiester-linked; [ ] holds rarer units or linkages, { } end groups; capitals alone tell only the bases. d = 2'-deoxy (DNA); m = 2'-O-methyl

Tests used:
LINC-PINT [1] = assay: HEK293-TLR8, 100 nM ASO, then resiquimod
LINC-PINT [2] = assay: HEK293-TLR7, 100 nM ASO, then resiquimod

“mG*mU*mC*mC*mC*dA*dT*dC*dC*dC*dT*dT*dC*dT*dG*mC*mU*mG*mC*mC” gave a TLR8 potentiation (NF-kB luciferase) (fold of resiquimod alone) (LINC-PINT [1]) of 1.37 and a TLR7 signal (NF-kB luciferase) (% of resiquimod alone) (LINC-PINT [2]) of 22.5.
Substance “mG*mU*mC*mC*mG*dT*dA*dC*dC*dT*dC*dC*dA*dC*dC*mC*mA*mC*mC*mG” has a TLR8 potentiation (NF-kB luciferase) (fold of resiquimod alone) (LINC-PINT [1]) of 1.7 and a TLR7 signal (NF-kB luciferase) (% of resiquimod alone) (LINC-PINT [2]) of 22.8.
Substance “mG*mU*mC*mU*mC*dC*dT*dC*dC*dA*dC*dA*dC*dC*dC*mU*mU*mC*mU*mC” has a TLR8 potentiation (NF-kB luciferase) (fold of resiquimod alone) (LINC-PINT [1]) of 1.98 and a TLR7 signal (NF-kB luciferase) (% of resiquimod alone) (LINC-PINT [2]) of 25.
Substance “mG*mU*mU*mC*mA*dG*dT*dC*dA*dG*dA*dT*dC*dG*dC*mU*mG*mG*mG*mA” has a TLR8 potentiation (NF-kB luciferase) (fold of resiquimod alone) (LINC-PINT [1]) of 1.55 and a TLR7 signal (NF-kB luciferase) (% of resiquimod alone) (LINC-PINT [2]) of 17.5.
In the case of “mU*mA*mU*mU*mC*dA*dT*dA*dT*dT*dT*dT*dT*dA*dT*mU*mU*mC*mA*mG”, the TLR8 potentiation (NF-kB luciferase) (fold of resiquimod alone) (LINC-PINT [1]) is reported as 4.47 and the TLR7 signal (NF-kB luciferase) (% of resiquimod alone) (LINC-PINT [2]) is reported as 87.1.
In the case of “mU*mC*mC*mC*mA*dA*dC*dT*dC*dT*dT*dC*dT*dA*dA*mC*mU*mC*mG*mU”, the TLR8 potentiation (NF-kB luciferase) (fold of resiquimod alone) (LINC-PINT [1]) is reported as 3.7 and the TLR7 signal (NF-kB luciferase) (% of resiquimod alone) (LINC-PINT [2]) is reported as 40.8.
In the case of “mU*mC*mC*mC*mA*dT*dC*dC*dC*dT*dT*dC*dT*dG*dC*mU*mG*mC*mC*mA”, the TLR8 potentiation (NF-kB luciferase) (fold of resiquimod alone) (LINC-PINT [1]) is reported as 3.95 and the TLR7 signal (NF-kB luciferase) (% of resiquimod alone) (LINC-PINT [2]) is reported as 43.1.
In the case of “mU*mC*mU*mC*mU*dC*dT*dG*dG*dT*dC*dC*dC*dA*dT*mC*mC*mC*mU*mU”, the TLR8 potentiation (NF-kB luciferase) (fold of resiquimod alone) (LINC-PINT [1]) is reported as 3.68 and the TLR7 signal (NF-kB luciferase) (% of resiquimod alone) (LINC-PINT [2]) is reported as 43.8.
With “mU*mC*mU*mC*mU*dG*dG*dT*dC*dC*dC*dA*dT*dC*dC*mC*mU*mU*mC*mU” the TLR8 potentiation (NF-kB luciferase) (fold of resiquimod alone) (LINC-PINT [1]) was 5.44 and the TLR7 signal (NF-kB luciferase) (% of resiquimod alone) (LINC-PINT [2]) was 78.2.
“mU*mC*mU*mG*mG*dT*dC*dC*dC*dA*dT*dC*dC*dC*dT*mU*mC*mU*mG*mC” showed a TLR8 potentiation (NF-kB luciferase) (fold of resiquimod alone) (LINC-PINT [1]) of 3.36 and a TLR7 signal (NF-kB luciferase) (% of resiquimod alone) (LINC-PINT [2]) of 29.4.
Substance “mU*mG*mA*mC*mA*dA*dA*dA*dC*dA*dA*dT*dA*dA*dT*mA*mA*mC*mA*mG” has a TLR8 potentiation (NF-kB luciferase) (fold of resiquimod alone) (LINC-PINT [1]) of 1.31 and a TLR7 signal (NF-kB luciferase) (% of resiquimod alone) (LINC-PINT [2]) of 36.7.
“mU*mG*mA*mC*mA*dT*dT*dT*dC*dG*dT*dG*dG*dC*dT*mC*mC*mU*mA*mC” gave a TLR8 potentiation (NF-kB luciferase) (fold of resiquimod alone) (LINC-PINT [1]) of 1.73 and a TLR7 signal (NF-kB luciferase) (% of resiquimod alone) (LINC-PINT [2]) of 33.6.
In the case of “mU*mG*mA*mU*mG*dA*dT*dG*dC*dT*dT*dG*dC*dA*dG*mG*mA*mG*mG*mC”, the TLR8 potentiation (NF-kB luciferase) (fold of resiquimod alone) (LINC-PINT [1]) is reported as 1.18 and the TLR7 signal (NF-kB luciferase) (% of resiquimod alone) (LINC-PINT [2]) is reported as 25.5.
“mU*mG*mC*mU*mA*dT*dT*dC*dA*dT*dA*dT*dT*dT*dT*mU*mA*mU*mU*mU” was tested, and the TLR8 potentiation (NF-kB luciferase) (fold of resiquimod alone) (LINC-PINT [1]) was 3.01 and the TLR7 signal (NF-kB luciferase) (% of resiquimod alone) (LINC-PINT [2]) was 42.4.
“mU*mG*mG*mC*mG*dT*dA*dG*dT*dT*dT*dC*dT*dC*dT*mU*mC*mC*mU*mC” gave a TLR8 potentiation (NF-kB luciferase) (fold of resiquimod alone) (LINC-PINT [1]) of 2.48 and a TLR7 signal (NF-kB luciferase) (% of resiquimod alone) (LINC-PINT [2]) of 32.8.
Work on “mU*mG*mU*mU*mU*dC*dC*dC*dC*dG*dG*dA*dG*dA*dG*mC*mA*mA*mU*mG” yielded a TLR8 potentiation (NF-kB luciferase) (fold of resiquimod alone) (LINC-PINT [1]) of 1.62 and a TLR7 signal (NF-kB luciferase) (% of resiquimod alone) (LINC-PINT [2]) of 30.9.
Substance “mU*mU*mA*mG*mC*dT*dC*dC*dT*dT*dG*dC*dC*dT*dC*mG*mU*mU*mC*mC” has a TLR8 potentiation (NF-kB luciferase) (fold of resiquimod alone) (LINC-PINT [1]) of 3.43 and a TLR7 signal (NF-kB luciferase) (% of resiquimod alone) (LINC-PINT [2]) of 31.7.
“mU*mU*mC*mU*mC*dT*dC*dT*dG*dG*dT*dC*dC*dC*dA*mU*mC*mC*mC*mU” showed a TLR8 potentiation (NF-kB luciferase) (fold of resiquimod alone) (LINC-PINT [1]) of 2.83 and a TLR7 signal (NF-kB luciferase) (% of resiquimod alone) (LINC-PINT [2]) of 26.2.
“mU*mU*mG*mG*mC*dC*dT*dG*dT*dG*dG*dA*dT*dG*dC*mU*mU*mU*mG*mU” was tested, and the TLR8 potentiation (NF-kB luciferase) (fold of resiquimod alone) (LINC-PINT [1]) was 0.75 and the TLR7 signal (NF-kB luciferase) (% of resiquimod alone) (LINC-PINT [2]) was 21.4.
“mU*mU*mU*mA*mU*dA*dT*dT*dA*dC*dA*dA*dA*dG*dC*mU*mA*mC*mU*mU” showed a TLR8 potentiation (NF-kB luciferase) (fold of resiquimod alone) (LINC-PINT [1]) of 2.71 and a TLR7 signal (NF-kB luciferase) (% of resiquimod alone) (LINC-PINT [2]) of 33.7.
Substance “mU*mU*mU*mG*mA*dA*dA*dT*dT*dC*dA*dG*dA*dA*dG*mA*mU*mU*mU*mG” has a TLR8 potentiation (NF-kB luciferase) (fold of resiquimod alone) (LINC-PINT [1]) of 2.57 and a TLR7 signal (NF-kB luciferase) (% of resiquimod alone) (LINC-PINT [2]) of 35.1.
